Source: US9073892B2, “Indazolyl triazol derivatives” (Merck Serono S.A., priority 2010, dated 2015)
Counter-ions that a name gives are not always drawn.

Key:
[1] = system: IL-6 secretion in human PBMC; assay: IRAK IL-6 secretion functional assay in human PBMC; assay type: cell-based; conditions: preincubated 1 h with test article, stimulated with 10 ng/ml IL1, 18-20 h, ELISA
Experimental: IRAK IL-6 Secretion Functional Assay in Human PBMC
Human PBMCs from healthy volunteers were purified from buffy coats of heparinized whole blood by density centrifugation on Ficoll-Hypaque. Isolated PBMCs were washed twice in PBS, counted, and seeded at a density of 7×10^4 cells/well in 180 µl of complete RPMI 1640 medium containing 10% heat-inactivated FBS. PBMC were preincubated for 1 h with serial dilutions of test article dissolved in DMSO (final DMSO concentration 0.33%) at 37° C. in a 5% CO2 incubator. PBMC were then stimulated with 10 ng/ml of IL1-(final volume […]) and incubation was continued for 18-20 h. The supernatants were collected and IL-6 was quantified using the Duo-set ELISA kit (R&D Systems) following manufacturer's instructions

[2] = system: IL1β-induced IL8 release in THP1 cells; assay: IRAK IL8 secretion functional assay; assay type: cell-based; conditions: Homo sapiens; THP-1 cells, IL1β 100 ng/ml overnight, IL8 by HTRF; read-out: IC50, Secretion THP-1/IL-β induced IL8 release
In short: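 THP-1 cells (30,000/well, RPMI 1640) were incubated overnight at 37 °C, 5% CO2 with compound (20 μM to 1 nM) plus IL1β at 100 ng/ml final. IL-8 in the supernatant was measured by HTRF with europium cryptate- and XL665-labelled anti-IL8 antibodies, read after 3 h at 30 °C.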

IRAK1/4 human = system: T1, IRAK1/4 human; assay: IRAK1/4 phosphorylation IC50 (enzymatic assay, table 2); assay type: biochemical; conditions: human IRAK1/4 phosphorylation
T1 construct: fused on or other part: His tag and TEV cleavage site at the N-terminus
In short: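 His-TEV-tagged human IRAK-1 or IRAK-4 (IRAK-4 with STK1-biotin peptide) was incubated in 384-well plates with ATP and compounds in DMSO from 20 µM to 1 nM, with 2% DMSO controls. The buffer was Hepes pH7.0 50 mM with MgCl2, DTT, EGTA and BSA, and reactions ran 2 or 3 hours. Inhibition was reported as IC50.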

LPS-induced TNFα release = assay: LPS-induced cytokine release in mice (TNFα); assay type: in vivo; conditions: 1 mpk po, 30 min before LPS 1 mg/kg i.p., serum 2 hours after LPS, female C57B6 mice
Experimental: (§1) LPS-Induced Cytokine Release in Mice
(§2) Female C57B6 mice (8-10 weeks 4-6 mice/group) were dosed p.o. with vehicle (40% Kleptose in water), reference compound dexamethasone (1 mg/kg) or three different doses of compound 1 (10, 30 and 60 mg/kg at 10 mL/kg). 30 minutes after compound administrations mice were injected i.p. with LPS (0111:B4, 1 mg/kg). 2 hours after LPS injection mice were sacrificed. Serum was collected; cytokine levels (TNF-α and IL-6) were detected by ELISA or OBA.

LPS-induced IL-6 release = assay: LPS-induced cytokine release in mice (IL-6); assay type: in vivo; conditions: 1 mpk po, 30 min before LPS 1 mg/kg i.p., serum 2 hours after LPS, female C57B6 mice
Experimental: as §1, §2

Structure (SMILES) | IC50 [1] [nM] | IC50 [2] [nM] | IC50 (IRAK1/4 human) [nM] | inhibition of LPS-induced TNFα release in mice (LPS-induced TNFα release) [% INH] | inhibition of LPS-induced IL-6 release in mice (LPS-induced IL-6 release) [% INH]
O=C(c1ccc(-n2cc(-c3n[nH]c4ccccc34)nn2)cc1)N1CCCC(CN2CCCC2)C1 (centres unmarked) [Example 2, 3-[1-(4-{[3-(pyrrolidin-1-ylmethyl)piperidin-1-yl]carbonyl}phenyl)-1H-1,2,3-triazol-4-yl]-1H-indazole] | 200 to 2000 | < 100 | < 100 | – | –
Cc1ccc2[nH]nc(-c3cn(-c4ccc(CN5CCOCC5)cc4)nn3)c2c1 [Example 7, 5-methyl-3-{1-[4-(morpholin-4-ylmethyl)phenyl]-1H-1,2,3-triazol-4-yl}-1H-indazole] | 200 to 2000 | 100 to 1000 | 100 to 1000 | – | –
O=C(c1ccc(-n2cc(-c3n[nH]c4ccccc34)nn2)cc1)N1CCCC(O)C1 (centres unmarked) [Example 30] | 200 to 2000 | 100 to 1000 | 100 to 1000 | – | –
O=C(c1ccc(-n2cc(-c3n[nH]c4ccccc34)nn2)cc1)N1CCCC(CO)C1 (centres unmarked) [Example 33] | < 200 | 100 to 1000 | < 100 | – | –
O=C(c1ccc(-n2cc(-c3n[nH]c4ccccc34)nn2)cc1)N1CC(O)C1 [Example 114, 1-{4-[4-(1H-indazol-3-yl)-1H-1,2,3-triazol-1-yl]benzoyl}azetidin-3-ol] | – | 100 to 1000 | 100 to 1000 | – | –
Cc1nccn1CC1CCCN(C(=O)c2ccc(-n3cc(-c4n[nH]c5ccccc45)nn3)cc2)C1 (centres unmarked) [Example 115, 3-{1-[4-({3-[(2-methyl-1H-imidazol-1-yl)methyl]piperidin-1-yl}carbonyl)phenyl]-1H-1,2,3-triazol-4-yl}-1H-indazole] | – | 100 to 1000 | 100 to 1000 | – | –
O=C(c1ccc(-n2cc(-c3n[nH]c4ccccc34)nn2)cc1)N1CCCCC1CCO (centres unmarked) [Example 117, 2-(1-{4-[4-(1H-indazol-3-yl)-1H-1,2,3-triazol-1-yl]benzoyl}piperidin-2-yl)ethanol] | – | 100 to 1000 | 100 to 1000 | – | –
COCC1CCCN(C(=O)c2ccc(-n3cc(-c4n[nH]c5ccccc45)nn3)cc2)C1 (centres unmarked) [Example 118, 3-[1-(4-{[3-(methoxymethyl)piperidin-1-yl]carbonyl}phenyl)-1H-1,2,3-triazol-4-yl]-1H-indazole] | – | 100 to 1000 | 100 to 1000 | – | –
O=C(c1ccc(-n2cc(-c3n[nH]c4ccccc34)nn2)cc1)N1CCC(N2CCCC2)CC1 [Example 120, 3-(1-{4-[(4-pyrrolidin-1-ylpiperidin-1-yl)carbonyl]phenyl}-1H-1,2,3-triazol-4-yl)-1H-indazole] | – | 100 to 1000 | 100 to 1000 | – | –
O=C(c1ccc(-n2cc(-c3n[nH]c4ccc(C5CCN(CCF)CC5)cc34)nn2)cc1)N1CCOCC1 [Example 121, 5-[1-(2-fluoroethyl)piperidin-4-yl]-3-{1-[4-(morpholin-4-ylcarbonyl)phenyl]-1H-1,2,3-triazol-4-yl}-1H-indazole] | – | 100 to 1000 | < 100 | – | –
Cn1cc(-c2ccc3[nH]nc(-c4cn(-c5ccc(C(=O)N6CCOCC6)cc5)nn4)c3c2)cn1 [Example 123, 5-(1-methyl-1H-pyrazol-4-yl)-3-{1-[4-(morpholin-4-ylcarbonyl)phenyl]-1H-1,2,3-triazol-4-yl}-1H-indazole] | – | < 100 | < 100 | – | –
CN1CCC(c2ccc3[nH]nc(-c4cn(-c5ccc(C(=O)N6CCOCC6)cc5)nn4)c3c2)CC1 [Example 124, 5-(1-methylpiperidin-4-yl)-3-{1-[4-(morpholin-4-ylcarbonyl)phenyl]-1H-1,2,3-triazol-4-yl}-1H-indazole] | < 200 | 100 to 1000 | < 100 | – | –
CN1C2CCC1CC(n1cc(NC(=O)c3ccc(-n4cc(-c5n[nH]c6ccccc56)nn4)cc3)cn1)C2 (centres unmarked) [Example 125, 4-[4-(1H-indazol-3-yl)-1H-1,2,3-triazol-1-yl]-N-[1-(8-methyl-8-azabicyclo[3.2.1]oct-3-yl)-1H-pyrazol-4-yl]benzamide] | 200 to 2000 | 100 to 1000 | < 100 | – | –
O=C(c1ccc(-n2cc(-c3n[nH]c4ccccc34)nn2)cc1)N1CCCC(Cn2ccnc2)C1 (centres unmarked) [Example 126, 3-[1-(4-{[3-(1H-imidazol-1-ylmethyl)piperidin-1-yl]carbonyl}phenyl)-1H-1,2,3-triazol-4-yl]-1H-indazole] | – | 100 to 1000 | < 100 | – | –
COC1CCCN(C(=O)c2ccc(-n3cc(-c4n[nH]c5ccccc45)nn3)cc2)C1 (centres unmarked) [Example 127] | – | 100 to 1000 | < 100 | – | –
O=C(Nc1cnn(C2CCNCC2)c1)c1ccc(-n2cc(-c3n[nH]c4ccccc34)nn2)cc1 [Example 128, 4-[4-(1H-indazol-3-yl)-1H-1,2,3-triazol-1-yl]-N-(1-piperidin-4-yl-1H-pyrazol-4-yl)benzamide hydrochloride] | – | 1000 to 5000 | 100 to 1000 | – | –
O=C(Nc1cnn(C2CCCNCC2)c1)c1ccc(-n2cc(-c3n[nH]c4ccccc34)nn2)cc1 (centres unmarked) [Example 129, N-(1-azepan-4-yl-1H-pyrazol-4-yl)-4-[4-(1H-indazol-3-yl)-1H-1,2,3-triazol-1-yl]benzamide hydrochloride] | – | 1000 to 5000 | 100 to 1000 | – | –
c1ccc2c(-c3cn(-c4ccc(C5CCNCC5)cc4)nn3)n[nH]c2c1 [Example 132, 3-[1-(4-piperidin-4-ylphenyl)-1H-1,2,3-triazol-4-yl]-1H-indazole hydrochloride] | 200 to 2000 | – | 100 to 1000 | – | –
Cc1ccc2c(-c3cn(-c4ccc(C5CCN(CC(O)C(F)(F)F)CC5)cc4)nn3)n[nH]c2c1 (centres unmarked) [Example 136, 1,1,1-trifluoro-3-(4-{4-[4-(6-methyl-1H-indazol-3-yl)-1H-1,2,3-triazol-1-yl]phenyl}piperidin-1-yl)propan-2-ol] | 200 to 2000 | – | < 100 | – | –
c1ccc2c(-c3cn(-c4ccc(CN5C[C@@H]6C[C@H]5CO6)cc4)nn3)n[nH]c2c1 [Example 145, 3-(1-{4[(1S,4S)-2-oxa-5-azabicyclo[2.2.1]hept-5-ylmethyl]phenyl}-1H-1,2,3-triazol-4-yl)-1H-indazole] | 200 to 2000 | – | 100 to 1000 | – | –
CN(C)C1CCN(C(=O)c2ccc(-n3cc(-c4n[nH]c5ccc(F)cc45)nn3)cc2)CC1 [Example 158] | < 200 | – | – | – | –
c1ccc2c(-c3cn(-c4ccc(CN5CCOCC5)cc4)nn3)n[nH]c2c1 [Example 188] | 200 to 2000 | – | 100 to 1000 | – | –
O=c1ccc(-c2cccnc2)nn1Cc1ccc2[nH]nc(-c3cn(-c4ccc(CN5CCOCC5)cc4)nn3)c2c1 [Example 197] | < 200 | – | < 100 | – | –
O=C(c1ccc(-n2cc(-c3n[nH]c4ccc(C5CCCNC5)cc34)nn2)cc1)N1CCOCC1 (centres unmarked) [Example 204] | 200 to 2000 | – | < 100 | – | –
O=C(c1ccc(-n2cc(-c3n[nH]c4cc(-c5cccnc5)ccc34)nn2)cc1)N1CCOCC1 [Example 210] | 200 to 2000 | – | 100 to 1000 | – | –
Cc1ccc2c(-c3cn(-c4cnn(C5CC6CCC(C5)N6C)c4)nn3)n[nH]c2c1 (centres unmarked) [Example 224] | 200 to 2000 | – | < 100 | – | –
O=C(NC1CCCNC1)c1ccc2[nH]nc(-c3cn(-c4ccc(CN5CCOCC5)cc4)nn3)c2c1 (centres unmarked) [Example 238] | < 200 | – | < 100 | – | –
CN1[C@@H]2CC[C@H]1C[C@@H](c1ccc(-n3cc(-c4n[nH]c5ccccc45)nn3)cc1)C2 [Example 251] | 200 to 2000 | – | 100 to 1000 | – | –
Cc1ccc2c(-c3cn(-c4ccc(C5CCN(C6CCOCC6)CC5)cc4)nn3)n[nH]c2c1 [Example 298] | 200 to 2000 | – | 100 to 1000 | – | –
C[C@@H]1C[C@H]2[C@@H]3CCC4=CC(=O)C=C[C@]4(C)[C@@]3(F)[C@@H](O)C[C@]2(C)[C@@]1(O)C(=O)CO [dexamethasone, reference compound] | – | – | – | 97 | 83
